Test results: ChEMBL document CHEMBL1152937, “Carbonic anhydrase inhibitors. Inhibition and homology modeling studies of the fungal beta-carbonic anhydrase from Candida albicans with sulfonamides” (Bioorg Med Chem, 2009)

Target: T1, Carbonic anhydrase (Candida albicans (strain SC5314 / ATCC MYA-2876) (Yeast), UniProt Q5AJ71)
T1 sequence (Q5AJ71 whole entry): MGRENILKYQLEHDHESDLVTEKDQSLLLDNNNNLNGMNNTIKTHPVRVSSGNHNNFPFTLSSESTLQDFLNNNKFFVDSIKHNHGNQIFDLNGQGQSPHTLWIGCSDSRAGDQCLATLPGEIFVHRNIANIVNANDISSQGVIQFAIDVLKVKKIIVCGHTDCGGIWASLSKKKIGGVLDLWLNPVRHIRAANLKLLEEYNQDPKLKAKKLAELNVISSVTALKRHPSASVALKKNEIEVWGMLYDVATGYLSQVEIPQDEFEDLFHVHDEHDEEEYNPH

Row | Structure (SMILES) | Ki
1 | Nc1ccc(S(=O)(=O)NCc2ccc(S(N)(=O)=O)cc2)cc1 | 1310 nM
2 | Nc1cc(Cl)c(S(N)(=O)=O)cc1S(N)(=O)=O | 874 nM
3 | Nc1ccc(S(=O)(=O)Nc2nnc(S(N)(=O)=O)s2)cc1 | 1090 nM
4 | NS(=O)(=O)c1nnc(-c2ccccc2Cl)s1 | 1290 nM
5 | Nc1nccc(Nc2ccc(S(N)(=O)=O)cc2)n1 | 1110 nM
6 | Nc1ccc(S(N)(=O)=O)cc1Br | 408 nM
7 | Cn1nc(S(N)(=O)=O)sc1=N | 1370 nM
8 | NS(=O)(=O)c1ccc(CCO)cc1 | 1210 nM
9 | Nc1ccc(S(N)(=O)=O)cc1F | 1240 nM
10 | NS(=O)(=O)c1ccc(CO)cc1 | 383 nM
11 | NCCc1ccc(S(N)(=O)=O)cc1 | 3200 nM
12 | Nc1ccc(S(N)(=O)=O)cc1Cl | 1340 nM
13 | Nc1ccc(S(=O)(=O)NCCc2ccc(S(N)(=O)=O)cc2)cc1 | 727 nM
14 | Nc1cc(C(F)(F)F)c(S(N)(=O)=O)cc1S(N)(=O)=O [2,4-DISULFAMYLTRIFLUOROMETHYLANILINE] | 6110 nM
15 | NS(=O)(=O)c1nnc(NS(=O)(=O)c2ccccc2)s1 [BENZOLAMIDE] | 1510 nM
16 | CCN[C@H]1CN(CCCOC)S(=O)(=O)c2sc(S(N)(=O)=O)cc21 [BRINZOLAMIDE] | 1100 nM
17 | NS(=O)(=O)c1ccc(C(=O)O)cc1 [CARZENIDE] | 861 nM
18 | Cc1ccc(-c2cc(C(F)(F)F)nn2-c2ccc(S(N)(=O)=O)cc2)cc1 [CELECOXIB] | 1020 nM
19 | NCc1ccc(S(N)(=O)=O)cc1 [MAFENIDE] | 1110 nM
20 | O=C1NS(=O)(=O)c2ccccc21 [SACCHARIN] | 736 nM
21 | Nc1ccc(S(N)(=O)=O)cc1 [SULFANILAMIDE] | 7630 nM
22 | CC1(C)O[C@@H]2[C@@H](CO[C@@]3(COS(N)(=O)=O)OC(C)(C)O[C@@H]23)O1 [TOPIRAMATE] | 1110 nM
